Data published in patent US8183252B2, “Heterocyclic aspartyl protease inhibitors” (Schering Corporation, priority 2007, dated 2012).

Each compound was assayed against T1, human BACE1 (sproBACE1) (Homo sapiens, UniProt P56817) (assay: BACE-1 Peptide Hydrolysis Assay (HTRF)). Conditions: not given.
T1 construct: sBACE1, corresponding to amino acids 1-454; made in house; host or cells: Sf9 insect cells (baculovirus), secreted into the medium
T1 sequence (P56817 22-454): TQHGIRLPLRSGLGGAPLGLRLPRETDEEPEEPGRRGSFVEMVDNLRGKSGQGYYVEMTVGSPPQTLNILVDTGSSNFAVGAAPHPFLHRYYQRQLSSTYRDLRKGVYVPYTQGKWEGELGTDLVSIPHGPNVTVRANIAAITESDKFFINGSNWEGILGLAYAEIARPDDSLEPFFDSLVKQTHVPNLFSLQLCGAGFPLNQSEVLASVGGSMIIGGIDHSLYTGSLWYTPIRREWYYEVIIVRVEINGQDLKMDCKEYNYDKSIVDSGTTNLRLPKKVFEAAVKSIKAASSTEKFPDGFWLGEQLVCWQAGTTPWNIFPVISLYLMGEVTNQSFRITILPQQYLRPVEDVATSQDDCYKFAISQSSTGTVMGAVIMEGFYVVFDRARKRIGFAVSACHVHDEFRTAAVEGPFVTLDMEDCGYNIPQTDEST
Type: biochemical
How it was run: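 Secreted sBACE1-myc/His from baculovirus-infected sf9 cells, purified on Q-sepharose then Ni-NTA. Substrate-initiated reactions ran 3 hr at 30° C., then were stopped with KF buffer (pH 8.0) containing SA-XL665 for HTRF read-out. EC50 was fitted by sigmoidal dose-response to percent change in ratio.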
`CCn1nccc1Nc1cccc(C2(C)NC(=N)N(CC3CCN(C(C)=O)CC3)C2=O)c1` (racemic) showed a Ki of less than 5 µM.
Work on `CS(=O)(=O)N1CCCC(CCN2C(=N)NC(c3ccccc3)(c3ccccc3)C2=O)C1` (racemic) yielded a Ki of less than 5 µM.

Same assay, conditions: read-out: BACE-1 Ki
With `CCCCS(=O)(=O)Nc1cccc(CN2C(=N)NC(c3ccccc3)(c3ccccc3)C2=O)c1` the Ki was less than 5 µM.
Compound `Cc1c(-c2cccc(C#N)c2)csc1[C@]1(C)CC(=O)N(C)C(=N)N1` has a Ki of less than 5 µM.
For `COc1cc(C#N)cc(-c2cc([C@@]3(C)NC(=N)N(C)C(=O)[C@@H]3C)sc2C)c1`, the Ki was less than 5 µM.
Compound `CN1C(=N)NC(c2cc(-c3cncc(Cl)c3)cs2)(C2CC2)C1=O` (stereo not shown) has a Ki of less than 5 µM.
Compound `CN1C(=N)N[C@](C)(c2ccc(F)cc2F)[C@@H](C2CCN(c3ccc(F)cc3)CC2)C1=O` has a Ki of less than 5 µM.
Compound `CN1C(=N)N[C@](C)(c2ccc3c(Br)n[nH]c3c2)CC1=O` has a Ki of less than 5 µM.
Compound `CN1C(=N)N[C@](CCc2ccccc2)(C[C@H]2CCC[C@@H](NC(=O)c3ccncc3)C2)C1=O` has a Ki of less than 5 µM.
Compound `N=C1NC(c2ccccc2)(c2ccccc2)C(=O)N1C[C@H]1CCCN(S(=O)(=O)C2CC2)C1` has a Ki of less than 5 µM.
`CN1C(=N)N[C@](C)(c2cc(-c3cccnc3)cs2)CC1=O` was tested, and the Ki was less than 5 µM.
`CN1C(=N)NC(C)(c2cc(-c3cccc(C#N)c3)cs2)C(CC#N)C1=O` (mixture of isomers) gave a Ki of less than 5 µM.
In the case of `CN1C(=N)NC(c2ccccc2)(c2cccc(NCc3ccccc3)c2)C1=O` (racemic), the Ki is reported as less than 5 µM.
Compound `Cc1cncc(-c2cccc(C3(C)NC(=N)N(C)C3=O)c2)c1` (racemic) has a Ki of less than 5 µM.
Compound `CC1(c2cccc(-c3cccnc3)c2)NC(=N)N(Cc2cccc(N3CCCCS3(=O)=O)c2)C1=O` (racemic) has a Ki of less than 5 µM.
`COc1cccc(-c2cccc(C3(C)NC(=N)N(Cc4cccc(N5CCCCS5(=O)=O)c4)C3=O)c2)c1` (racemic) was tested, and the Ki was less than 5 µM.
Work on `CN1C(=N)NC(c2ccccc2)(c2cccc(NS(=O)(=O)c3cccc(C#N)c3)c2)C1=O` (racemic) yielded a Ki of less than 5 µM.
With `CCCN(CCC)C(=O)c1cccc(CN2C(=N)NC(C)(c3cccc(Br)c3)C2=O)c1` (racemic) the Ki was less than 5 µM.
`CN1C(=N)NC(C)(c2cccc(-c3cncc(C#N)c3)c2)C1=O` (racemic) gave a Ki of less than 5 µM.
For `CN1C(=N)NC(c2ccccc2)(c2cccc(-c3nccnc3Cl)c2)C1=O` (racemic), the Ki was less than 5 µM.
`CN1C(=N)NC(c2ccccc2)(c2cccc(-c3cc(Br)cc(OC(F)(F)F)c3)c2)C1=O` (racemic) showed a Ki of less than 5 µM.
`CN1C(=N)NC(C)(c2ccc(F)c(-c3cccnc3)c2)C1=O` (racemic) was tested, and the Ki was less than 5 µM.
With `COc1cccc(-c2cc(F)cc(C3(c4ccccc4)NC(=N)N(C)C3=O)c2)c1` (racemic) the Ki was less than 5 µM.
In the case of `CCN(CCc1cccc(C2(c3ccccc3)NC(=N)N(C)C2=O)c1)C(C)=O` (racemic), the Ki is reported as less than 5 µM.
For `CCN(CCc1cccc(C2(c3ccccc3)NC(=N)N(C)C2=O)c1)S(C)(=O)=O` (racemic), the Ki was less than 5 µM.
In the case of `CN1C(=N)NC(c2ccccc2)(c2cccc(NC(=O)CC3CC3)c2)C1=O` (racemic), the Ki is reported as less than 5 µM.
For `CN1C(=N)NC(c2ccccc2)(c2cccc(NS(C)(=O)=O)c2)C1=O` (racemic), the Ki was less than 5 µM.
For `CN1C(=N)NC(c2ccccc2)(c2cccc(NS(=O)(=O)c3cccs3)c2)C1=O` (racemic), the Ki was less than 5 µM.
In the case of `CN1C(=N)NC(c2ccccc2)(c2cccc(NS(=O)(=O)c3ccccc3)c2)C1=O` (racemic), the Ki is reported as less than 5 µM.
`CN1C(=N)NC(c2ccccc2)(c2cccc(NC(=O)c3ccccc3)c2)C1=O` (racemic) showed a Ki of less than 5 µM.
Work on `CN1C(=N)NC(c2ccccc2)(c2cccc(NC(=O)c3ccoc3)c2)C1=O` (racemic) yielded a Ki of less than 5 µM.
`CN1C(=N)NC(c2ccccc2)(c2cccc(-c3ccoc3)c2)C1=O` (racemic) [5-[3-(3-FURANYL)PHENYL]-2-IMINO-3-METHYL-5-PHENYL-4-IMIDAZOLIDINONE (RACEMIC), 5-[3-(3-FURANYL)PHENYL]-2-IMINO-3-METHYL-5-PHENYL-4-IMIDAZOLIDINONE] was tested, and the Ki was less than 5 µM.
`COC1C(=O)N(C)C(=N)NC1(C)c1cc(-c2ccc(F)c(C#N)c2)cs1` (single isomer, unassigned) was tested, and the Ki was less than 5 µM.
Work on `CN1C(=N)NC(C)(c2cc(-c3cccc(C#N)c3)cs2)C(n2cccn2)C1=O` (single isomer, unassigned) yielded a Ki of less than 5 µM.
`CCCCS(=O)(=O)Nc1ccc(CN2C(=N)NC(c3ccccc3)(c3ccccc3)C2=O)cc1` [1-butanesulfonamide, N-[4-[(2-imino-5-oxo-4,4-diphenyl-1-imidazolidinyl)methyl]phenyl]-] showed a Ki of less than 5 µM.
Compound `CC(C)S(=O)(=O)Nc1ccc(CN2C(=N)NC(c3ccccc3)(c3ccccc3)C2=O)cc1` [2-propanesulfonamide, N-[4-[(2-imino-5-oxo-4,4-diphenyl-1-imidazolidinyl)methyl]phenyl]-] has a Ki of less than 5 µM.
`CN1C(=N)NC(c2ccccc2)(c2cc(-c3cccc(C#N)c3)cs2)C1=O` (stereo not shown) [3-[5-(2-IMINO-1-METHYL-5-OXO-4-PHENYL-4-IMIDAZOLIDINYL)-3-THIENYL]BENZONITRILE] was tested, and the Ki was less than 5 µM.
For `N=C1NC(c2cccc(-c3cccc(Cl)c3)c2)(C2CC2)C(=O)N1C1CCC1` (stereo not shown) [4-imidazolidinone, 5-(3′-chloro[1,1′-biphenyl]-3-yl)-3-cyclobutyl-5-cyclopropyl-2-imino-], the Ki was less than 5 µM.
In the case of `N=C1NC(c2cccc(-c3cccc(Cl)c3)c2)(C2CC2)C(=O)N1C1CCCC1` (stereo not shown) [4-imidazolidinone, 5-(3′-chloro[1,1′-biphenyl]-3-yl)-3-cyclopentyl-5-cyclopropyl-2-imino-], the Ki is reported as less than 5 µM.
For `CC(C)N1C(=N)NC(c2cccc(-c3cccc(Cl)c3)c2)(C2CC2)C1=O` (stereo not shown) [4-imidazolidinone, 5-(3′-chloro[1,1′-biphenyl]-3-yl)-5-cyclopropyl-2-imino-3-(1-methylethyl)-], the Ki was less than 5 µM.
For `CCC(C)N1C(=N)NC(c2cccc(-c3cccc(Cl)c3)c2)(C2CC2)C1=O` (stereo not shown) [4-imidazolidinone, 5-(3′-chloro[1,1′-biphenyl]-3-yl)-5-cyclopropyl-2-imino-3-(1-methylpropyl)-], the Ki was less than 5 µM.
In the case of `N=C1NC(c2cccc(-c3cccc(Cl)c3)c2)(C2CC2)C(=O)N1CC(F)(F)F` (stereo not shown) [4-imidazolidinone, 5-(3′-chloro[1,1′-biphenyl]-3-yl)-5-cyclopropyl-2-imino-3-(2,2,2-trifluoroethyl)-], the Ki is reported as less than 5 µM.
With `N=C1NC(c2cccc(-c3cccc(Cl)c3)c2)(C2CC2)C(=O)N1C1CCOCC1` (stereo not shown) [4-imidazolidinone, 5-(3′-chloro[1,1′-biphenyl]-3-yl)-5-cyclopropyl-2-imino-3-(tetrahydro-2H-pyran-4-yl)-] the Ki was less than 5 µM.
Compound `CCC(CO)N1C(=N)NC(c2cccc(-c3cccc(Cl)c3)c2)(C2CC2)C1=O` (stereo not shown) [4-imidazolidinone, 5-(3′-chloro[1,1′-biphenyl]-3-yl)-5-cyclopropyl-3-[1-(hydroxymethyl)propyl]-2-imino-] has a Ki of less than 5 µM.
In the case of `N=C1NC(c2cccc(-c3cccc(Cl)c3)c2)(C2CC2)C(=O)N1C(CO)CO` (stereo not shown) [4-imidazolidinone, 5-(3′-chloro[1,1′-biphenyl]-3-yl)-5-cyclopropyl-3-[2-hydroxy-1-(hydroxymethyl)ethyl]-2-imino-], the Ki is reported as less than 5 µM.
`CCN(CC)CCCN1C(=N)NC(c2cccc(-c3cccc(Cl)c3)c2)(C2CC2)C1=O` (stereo not shown) [4-imidazolidinone, 5-(3′-chloro[1,1′-biphenyl]-3-yl)-5-cyclopropyl-3-[3-(diethylamino)propyl]-2-imino-] was tested, and the Ki was less than 5 µM.
`CC(C)[C@H](CO)N1C(=N)NC(c2cccc(-c3cccc(Cl)c3)c2)(C2CC2)C1=O` (stereo partly drawn) [4-imidazolidinone, 5-(3′-chloro[1,1′-biphenyl]-3-yl)-5-cyclopropyl-3-[(1R)-1-(hydroxymethyl)-2-methylpropyl]-2-imino-] was tested, and the Ki was less than 5 µM.
In the case of `CN1C(=N)NC(c2cccc(Br)c2)(C2(C)CC2)C1=O` (stereo not shown) [5-(3-BROMOPHENYL)-2-IMINO-3-METHYL-5-(1-METHYLCYCLOPROPYL)-4-IMIDAZOLIDINONE], the Ki is reported as less than 5 µM.
In the case of `CN1C(=N)NC(c2cccc(Br)c2)(C2CCC2)C1=O` (stereo not shown) [5-(3-BROMOPHENYL)-5-CYCLOBUTYL-2-IMINO-3-METHYL-4-IMIDAZOLIDINONE], the Ki is reported as less than 5 µM.
For `CN1C(=N)NC(c2cccc(Br)c2)(C2CCCCC2)C1=O` (stereo not shown) [5-(3-BROMOPHENYL)-5-CYCLOHEXYL-2-IMINO-3-METHYL-4-IMIDAZOLIDINONE], the Ki was less than 5 µM.
In the case of `CN1C(=N)NC(c2cccc(Br)c2)(C2CCCC2)C1=O` (stereo not shown) [5-(3-BROMOPHENYL)-5-CYCLOPENTYL-2-IMINO-3-METHYL-4-IMIDAZOLIDINONE], the Ki is reported as less than 5 µM.
In the case of `CN1C(=N)NC(c2cccc(-n3ccnc3)c2)(C2CC2)C1=O` (stereo not shown) [5-CYCLOPROPYL-5-[3-(1H-IMIDAZOL-1-YL)PHENYL]-2-IMINO-3-METHYL-4-IMIDAZOLIDINONE], the Ki is reported as less than 5 µM.
Compound `CN1C(=N)NC(c2ccccc2)(c2cc(-c3cccc(Cl)c3)cs2)C1=O` (stereo not shown) [5-[4-(3-CHLOROPHENYL)-2-THIENYL]-2-IMINO-3-METHYL-5-PHENYL-4-IMIDAZOLIDINONE] has a Ki of less than 5 µM.
Work on `CN1C(=N)NC(c2ccccc2)(c2cc(-c3cccc(F)c3)cs2)C1=O` (stereo not shown) [5-[4-(3-FLUOROPHENYL)-2-THIENYL]-2-IMINO-3-METHYL-5-PHENYL-4-IMIDAZOLIDINONE] yielded a Ki of less than 5 µM.
`N=C1NC(c2ccccc2)(c2ccccc2)C(=O)N1Cc1cccc(NC(=O)c2ccccc2)c1` [BENZAMIDE, N-[3-[(2-IMINO-5-OXO-4,4-DIPHENYL-1-IMIDAZOLIDINYL)METHYL]PHENYL]-] gave a Ki of less than 5 µM.
Compound `CCCC(=O)Nc1cccc(CN2C(=N)NC(c3ccccc3)(c3ccccc3)C2=O)c1` [BUTANAMIDE, N-[3-[(2-IMINO-5-OXO-4,4-DIPHENYL-1-IMIDAZOLIDINYL)METHYL]PHENYL]-] has a Ki of less than 5 µM.
`COc1ccccc1C(=O)NCc1ccc(Cl)cc1-c1cccc(C2(C)NC(=N)N(C)C2=O)c1` (stereo not shown) [benzamide, N-[[5-chloro-3′-(2-imino-1,4-dimethyl-5-oxo-4-imidazolidinyl)[1,1′-biphenyl]-2-yl]methyl]-2-methoxy-] was tested, and the Ki was less than 5 µM.
For `CN1C(=N)NC(C)(c2cccc(-c3cc(Cl)ccc3CNC(=O)Cc3ccccc3)c2)C1=O` (stereo not shown) [benzeneacetamide, N-[[5-chloro-3′-(2-imino-1,4-dimethyl-5-oxo-4-imidazolidinyl)[1,1′-biphenyl]-2-yl]methyl]-], the Ki was less than 5 µM.
